In brackets after ≈: the same amount, converted by molar mass.
Experiments:
[1] = Pharmacokinetics of IV formulation in humans (Phase I, advanced solid tumors); format: in vivo; conditions: human, plasma, IV infusion approx. 2 hour
Description: IV formulations of the invention were used in an open-label Phase I human study evaluating the safety and pharmacokinetics of N-(4-{4-amino-7-[1-(2-hydroxyethyl)-1H-pyrazol-4-yl]thieno[3,2-c]pyridin-3-yl}phenyl)-N′-(3-fluorophenyl)urea as monotherapy in subjects with advanced solid tumors, i.e., mixture of polyethylene glycol 300, polyoxyl 35 castor oil, and ethanol in a ratio of 45:45:10% w/w, and N-(4-{4-amino-7-[1-(2-hydroxyethyl)-1H-pyrazol-4-yl]thieno[3,2-c]pyridin-3-yl}phenyl)-N′-(3-fluorophenyl)urea, wherein the N-(4-{4-amino-7-[1-(2-hydroxyethyl)-1H-pyrazol-4-yl]thieno[3,2-c]pyridin-3-yl}phenyl)-N′-(3-fluorophenyl)urea is present in a concentration of about 6 mg/mL.
The number of subjects that entered the studies and completed at least a portion of the studies are noted. Subjects entered the study and were assigned to receive one of the following doses: 8 mg, 16 mg, or 32 mg.
Doses were administered on Day 1 and Day 15 of each 28 day cycle with an approximately 2 hour infusion. On Day 1 and Day 15, plasma samples are collected at time 0 (prior to infusion), 1 h 55 min (just before the end of the infusion), and at 0.5, 1, 2, 4, 6, 8, 10, 24 hours post the end of infusion. The plasma concentrations of N-(4-{4-amino-7-[1-(2-hydroxyethyl)-1H-pyrazol-4-yl]thieno[3,2-c]pyridin-3-yl}phenyl)-N′-(3-fluorophenyl)urea were determined, and the values for the pharmacokinetic parameters were calculated and shown in Table 7.

[2] = Solubility of free base in various media; format: physicochemical
Description: Solubility of N-(4-{4-amino-7-[1-(2-hydroxyethyl)-1H-pyrazol-4-yl]thieno[3,2-c]pyridin-3-yl}phenyl)-N′-(3-fluorophenyl)urea Free Base in Various Media

[3] = Solubility of free base in PEG-300/Cremophor EL/Ethanol vehicles; format: physicochemical
Description: Solubility of N-(4-{4-amino-7-[1-(2-hydroxyethyl)-1H-pyrazol-4-yl]thieno[3,2-c]pyridin-3-yl}phenyl)-N′-(3-fluorophenyl)urea Free Base in PEG-300/Cremophor EL/Ethanol Vehicles

[4] = 8 mg, 8 mg, Study Day 1, mean ± SD, N 4
[5] = 8 mg, 8 mg, Study Day 15, mean ± SD, N 4
[6] = 16 mg, 16 mg, Study Day 15, N 1
[7] = 32 mg, 32 mg, Study Day 1, mean, N 2
[8] = 32 mg, 32 mg, Study Day 15, mean, N 2

For `Nc1ncc(-c2cnn(CCO)c2)c2scc(-c3ccc(NC(=O)Nc4cccc(F)c4)cc3)c12` [API, N-(4-{4-amino-7-[1-(2-hydroxyethyl)-1H-pyrazol-4-yl]thieno[3,2-c]pyridin-3-yl}phenyl)-N′-(3-fluorophenyl)urea], the half-life ([1]; 8 mg, 8 mg, Study Day 1, harmonic mean ± pseudo SD, N 4) was 10.7 ± 8.3 h, the AUC(0-inf) [1, 4] was 2960 ± 1540 ng·h/mL and the Cmax [1, 4] was 235 ± 82.1 ng/mL. It also gave a Tmax [1, 4] of 1.9 h, a half-life ([1]; 8 mg, 8 mg, Study Day 15, harmonic mean ± pseudo SD, N 4) of 14.1 ± 7.4 h and an AUC(0-inf) [1, 5] of 2940 ± 1630 ng·h/mL. The Cmax [1, 5] was 246 ± 107 ng/mL, the Tmax [1, 5] was 1.9 h and the AUC(0-inf) ([1]; 16 mg, 16 mg, Study Day 1, N 1) was 2350 ng·h/mL. It also gave a Cmax ([1]; 16 mg, 16 mg, Study Day 1, N 1) of 366 ng/mL, a Tmax ([1]; 16 mg, 16 mg, Study Day 1, N 1) of 2.5 h and a half-life ([1]; 16 mg, 16 mg, Study Day 1, N 1) of 9.8 h. For the same compound, the AUC(0-inf) [1, 6] was 3690 ng·h/mL, the Cmax [1, 6] was 736 ng/mL and the Tmax [1, 6] was 1.9 h. For the same compound, the half-life [1, 6] was 12.6 h, the half-life ([1]; 32 mg, 32 mg, Study Day 1, harmonic mean, N 2) was 8.9 h and the AUC(0-inf) [1, 7] was 8730 ng·h/mL. It also gave a Cmax [1, 7] of 1310 ng/mL, a Tmax [1, 7] of 1.9 h and a half-life ([1]; 32 mg, 32 mg, Study Day 15, harmonic mean, N 2) of 11.3 h. For the same compound, the AUC(0-inf) [1, 8] was 8620 ng·h/mL, the Cmax [1, 8] was 1370 ng/mL and the Tmax [1, 8] was 2.2 h. For the same compound, the solubility ([2]; 10% Cremophor EL in water, aqueous with cosolvent or surfactant or cyclodextrin, read-out: Solubility) was 106 µg/mL (≈ 217 µM), the solubility ([2]; 10% Polysorbate 80 in water, aqueous with cosolvent or surfactant or cyclodextrin, read-out: Solubility) was 146 µg/mL (≈ 299 µM) and the solubility ([2]; 10% Solutol HS in water, aqueous with cosolvent or surfactant or cyclodextrin, read-out: Solubility) was 152 µg/mL (≈ 311 µM). For the same compound, the solubility ([2]; Cremophor EL, organic solvent or mixture, Cremphor EL, read-out: Solubility) was 7100 µg/mL (≈ 14500 µM), the solubility ([2]; DMA, organic solvent or mixture, read-out: Solubility) was 35000 to 50000 µg/mL (≈ 71600 to 102000 µM) and the solubility ([2]; Ethanol, organic solvent or mixture, read-out: Solubility) was 130 µg/mL (≈ 266 µM). For the same compound, the solubility ([2]; PEG 300, organic solvent or mixture, read-out: Solubility) was 20000 µg/mL (≈ 40900 µM), the solubility ([2]; PEG 400, organic solvent or mixture, read-out: Solubility) was 20900 µg/mL (≈ 42800 µM) and the solubility ([2]; Polysorbate 80, organic solvent or mixture, read-out: Solubility) was 2500 µg/mL (≈ 5120 µM). The solubility ([2]; Propylene Glycol, organic solvent or mixture, read-out: Solubility) was 1200 µg/mL (≈ 2460 µM), the solubility ([2]; Water (across physiological pH range), read-out: Solubility) was < 0.03 µg/mL and the solubility ([2]; water, pH 7.4, aqueous buffer, read-out: solubility in water) was < 0.03 µg/mL. For the same compound, the solubility ([3]; PEG-300/Cremophor EL/Ethanol 42.5/42.5/15, organic solvent or mixture, PEG-300/Cremophor EL/Ethanol ratio 42.5/42.5/15, 5° C., read-out: Solubility (mg/mL) at 5° C.) was 11.9 mg/mL, the solubility ([3]; PEG-300/Cremophor EL/Ethanol 42.5/42.5/15, organic solvent or mixture, PEG-300/Cremophor EL/Ethanol ratio 42.5/42.5/15, RT, read-out: Solubility (mg/mL) at RT) was 10 mg/mL and the solubility ([3]; PEG-300/Cremophor EL/Ethanol 45/45/10, organic solvent or mixture, PEG-300/Cremophor EL/Ethanol ratio 45/45/10, 5° C., read-out: Solubility (mg/mL) at 5° C.) was 14.1 mg/mL. For the same compound, the solubility ([3]; PEG-300/Cremophor EL/Ethanol 45/45/10, organic solvent or mixture, PEG-300/Cremophor EL/Ethanol ratio 45/45/10, RT, read-out: Solubility (mg/mL) at RT) was 11.6 mg/mL, the solubility ([3]; PEG-300/Cremophor EL/Ethanol 47.5/47.5/5, organic solvent or mixture, PEG-300/Cremophor EL/Ethanol ratio 47.5/47.5/5, 5° C., read-out: Solubility (mg/mL) at 5° C.) was 16.4 mg/mL and the solubility ([3]; PEG-300/Cremophor EL/Ethanol 47.5/47.5/5, organic solvent or mixture, PEG-300/Cremophor EL/Ethanol ratio 47.5/47.5/5, RT, read-out: Solubility (mg/mL) at RT) was 13 mg/mL.
